Laboratory results: patent publication US20240358693A1, “METHODS OF TREATING PAIN” (Aisa Pharma, Inc., priority 2023, published 2024)

Test system: participants with SSc-RP
Experiment: Average duration of weekly RP attacks (minutes)
Format: in vivo, human
Excerpt: The absolute change in average duration of weekly RP attacks from baseline to the end of each dosing period was and will be a secondary outcome variable. The sponsor-developed participant-informed diary was and will be used to record data. Average duration of weekly RP attacks is defined as the total duration of RP attacks divided by total number of RP attacks within the last 7 days of each dosing period. Total duration of RP attacks during the last 7 days of screening period divided by the total number of RP attacks will be used as baseline for the analysis of all periods. The variable will be calculated similar to frequency data as before.

[1] = Pooled Cilnidipine 10 mg and Cilnidipine 10 mg + Tadalafil 5 mg, Excluding Outliers, by Baseline RCS, subgroup 2, ITT Population - Part A
[2] = Pooled Cilnidipine 10 mg and Cilnidipine 10 mg + Tadalafil 5 mg, ITT Part A
[3] = Pooled Cilnidipine 10 mg and Cilnidipine 10 mg + Tadalafil 5 mg, by Baseline RCS, subgroup 1, ITT Population - Part A
[4] = Pooled Cilnidipine 10 mg and Cilnidipine 10 mg + Tadalafil 5 mg, by Baseline RCS, subgroup 2, ITT Population - Part A
[5] = Pooled Cilnidipine 20 mg and Cilnidipine 20 mg + Tadalafil 5 mg, n=4, Excluding Outliers, ITT Part A
[6] = Pooled Cilnidipine 20 mg and Cilnidipine 20 mg + Tadalafil 5 mg, n=4, ITT Part A
[7] = Pooled Cilnidipine 20 mg and Cilnidipine 20 mg + Tadalafil 5 mg, Baseline RCS subgroup 1 (unnamed), ITT Part A
[8] = Pooled Cilnidipine 20 mg and Cilnidipine 20 mg + Tadalafil 5 mg, Baseline RCS subgroup 2 (unnamed), ITT Part A
[9] = Pooled Cilnidipine 20 mg and Cilnidipine 20 mg + Tadalafil 5 mg, Excluding Outliers, Baseline RCS subgroup 1 (unnamed), ITT Part A
[10] = Pooled Cilnidipine 20 mg and Cilnidipine 20 mg + Tadalafil 5 mg, Excluding Outliers, Baseline RCS subgroup 2 (unnamed), ITT Part A
[11] = Pooled Cilnidipine 20 mg and Cilnidipine 20 mg + Tadalafil 5 mg, Excluding Outliers, ITT Population - Part A
[12] = Pooled Cilnidipine 20 mg and Cilnidipine 20 mg + Tadalafil 5 mg, Excluding Outliers, by Baseline RCS, subgroup 1, ITT Population - Part A

## COCCOC(=O)C1=C(C)NC(C)=C(C(=O)OC/C=C/c2ccccc2)C1c1cccc([N+](=O)[O-])c1 (stereo not shown) [Cilnidipine, cilnidipine]
[1]
  Average Duration of Weekly RP Attacks (All Attacks) Change from Baseline, Mean: -20.38 min
  Average Duration of Weekly RP Attacks (All Attacks) Change from Baseline, Median: -20.38 min
  Average Duration of Weekly RP Attacks (All Attacks) Percent Change from Baseline, Mean: −37.36%
  Average Duration of Weekly RP Attacks (All Attacks) Percent Change from Baseline, Median: −37.36%
  Average Duration of Weekly RP Attacks (All Attacks), Mean: 34.17 min
  Average Duration of Weekly RP Attacks (All Attacks), Median: 34.17 min
[2]
  Average Duration of Weekly RP Attacks (All Attacks) Change from Baseline, Mean: -9.54 min
  Average Duration of Weekly RP Attacks (All Attacks) Change from Baseline, Median: -8.48 min
  Average Duration of Weekly RP Attacks (All Attacks) Percent Change from Baseline, Mean: −19.10%
  Average Duration of Weekly RP Attacks (All Attacks) Percent Change from Baseline, Median: −21.20%
  Average Duration of Weekly RP Attacks (All Attacks), Mean: 27.90 min
  Average Duration of Weekly RP Attacks (All Attacks), Median: 31.52 min
[3]
  Average Duration of Weekly RP Attacks (All Attacks) Change from Baseline, Mean: -4.13 min
  Average Duration of Weekly RP Attacks (All Attacks) Change from Baseline, Median: -4.13 min
  Average Duration of Weekly RP Attacks (All Attacks) Percent Change from Baseline, Mean: −9.97%
  Average Duration of Weekly RP Attacks (All Attacks) Percent Change from Baseline, Median: −9.97%
  Average Duration of Weekly RP Attacks (All Attacks), Mean: 24.76 min
  Average Duration of Weekly RP Attacks (All Attacks), Median: 24.76 min
[4]
  Average Duration of Weekly RP Attacks (All Attacks) Change from Baseline, Mean: -20.38 min
  Average Duration of Weekly RP Attacks (All Attacks) Change from Baseline, Median: -20.38 min
  Average Duration of Weekly RP Attacks (All Attacks) Percent Change from Baseline, Mean: −37.36%
  Average Duration of Weekly RP Attacks (All Attacks) Percent Change from Baseline, Median: −37.36%
  Average Duration of Weekly RP Attacks (All Attacks), Mean: 34.17 min
  Average Duration of Weekly RP Attacks (All Attacks), Median: 34.17 min
[5]
  Average Duration of Weekly Symptomatic RP Attacks, Change from Baseline, Mean: -7.51 min
  Average Duration of Weekly Symptomatic RP Attacks, Change from Baseline, Median: -3.55 min
  Average Duration of Weekly Symptomatic RP Attacks, Mean: 27.98 min
  Average Duration of Weekly Symptomatic RP Attacks, Median: 22.96 min
  Average Duration of Weekly Symptomatic RP Attacks, Percent Change from Baseline, Mean: −16.40%
  Average Duration of Weekly Symptomatic RP Attacks, Percent Change from Baseline, Median: −7.30%
[6]
  Average Duration of Weekly Symptomatic RP Attacks, Change from Baseline, Mean: -7.51 min
  Average Duration of Weekly Symptomatic RP Attacks, Change from Baseline, Median: -3.55 min
  Average Duration of Weekly Symptomatic RP Attacks, Mean: 27.98 min
  Average Duration of Weekly Symptomatic RP Attacks, Median: 22.96 min
  Average Duration of Weekly Symptomatic RP Attacks, Percent Change from Baseline, Mean: −16.40%
  Average Duration of Weekly Symptomatic RP Attacks, Percent Change from Baseline, Median: −7.30%
[7]
  Average Duration of Weekly Symptomatic RP Attacks, Change from Baseline, Mean: -1.01 min
  Average Duration of Weekly Symptomatic RP Attacks, Change from Baseline, Median: 3.24 min
  Average Duration of Weekly Symptomatic RP Attacks, Mean: 16.31 min
  Average Duration of Weekly Symptomatic RP Attacks, Median: 15.46 min
  Average Duration of Weekly Symptomatic RP Attacks, Percent Change from Baseline, Mean: −11.86%
  Average Duration of Weekly Symptomatic RP Attacks, Percent Change from Baseline, Median: 15.41%
[8]
  Average Duration of Weekly Symptomatic RP Attacks, Change from Baseline, Mean: -27.00 min
  Average Duration of Weekly Symptomatic RP Attacks, Change from Baseline, Median: -27.00 min
  Average Duration of Weekly Symptomatic RP Attacks, Mean: 63.00 min
  Average Duration of Weekly Symptomatic RP Attacks, Median: 63.00 min
  Average Duration of Weekly Symptomatic RP Attacks, Percent Change from Baseline, Mean: −30.00%
  Average Duration of Weekly Symptomatic RP Attacks, Percent Change from Baseline, Median: −30.00%
[9]
  Average Duration of Weekly Symptomatic RP Attacks, Change from Baseline, Mean: -1.01 min
  Average Duration of Weekly Symptomatic RP Attacks, Change from Baseline, Median: 3.24 min
  Average Duration of Weekly Symptomatic RP Attacks, Mean: 16.31 min
  Average Duration of Weekly Symptomatic RP Attacks, Median: 15.46 min
  Average Duration of Weekly Symptomatic RP Attacks, Percent Change from Baseline, Mean: −11.86%
  Average Duration of Weekly Symptomatic RP Attacks, Percent Change from Baseline, Median: 15.41%
[10]
  Average Duration of Weekly Symptomatic RP Attacks, Change from Baseline, Mean: -27.00 min
  Average Duration of Weekly Symptomatic RP Attacks, Change from Baseline, Median: -27.00 min
  Average Duration of Weekly Symptomatic RP Attacks, Mean: 63.00 min
  Average Duration of Weekly Symptomatic RP Attacks, Median: 63.00 min
  Average Duration of Weekly Symptomatic RP Attacks, Percent Change from Baseline, Mean: −30.00%
  Average Duration of Weekly Symptomatic RP Attacks, Percent Change from Baseline, Median: −30.00%
[11]
  Average Duration of Weekly RP Attacks (All Attacks) Change from Baseline, Mean: -4.77 min
  Average Duration of Weekly RP Attacks (All Attacks) Change from Baseline, Median: -2.73 min
  Average Duration of Weekly RP Attacks (All Attacks) Percent Change from Baseline, Mean: −13.86%
  Average Duration of Weekly RP Attacks (All Attacks) Percent Change from Baseline, Median: −2.74%
  Average Duration of Weekly RP Attacks (All Attacks), Mean: 27.61 min
  Average Duration of Weekly RP Attacks (All Attacks), Median: 22.36 min
[12]
  Average Duration of Weekly RP Attacks (All Attacks) Change from Baseline, Mean: 0.00 min
  Average Duration of Weekly RP Attacks (All Attacks) Change from Baseline, Median: 2.16 min
  Average Duration of Weekly RP Attacks (All Attacks) Percent Change from Baseline, Mean: −10.70%
  Average Duration of Weekly RP Attacks (All Attacks) Percent Change from Baseline, Median: 17.86%
  Average Duration of Weekly RP Attacks (All Attacks), Mean: 15.91 min
  Average Duration of Weekly RP Attacks (All Attacks), Median: 14.27 min
Pooled Cilnidipine 20 mg and Cilnidipine 20 mg + Tadalafil 5 mg, Excluding Outliers, by Baseline RCS, subgroup 2, ITT Population - Part A
  Average Duration of Weekly RP Attacks (All Attacks) Change from Baseline, Mean: -19.09 min
